Data on one compound can be found in patent publication US3993754A (priority 1974, dated 1976).

Usually LD50 stands for the dose expected to kill half of the subjects tested.

For data set [1] the following is noted: mice. As to the method:
Female CF No. 1 (Carworth Farms) mice, 3 months of age, weighing between 27 and 29 grams, were used in each instance in these experiments. For toxicity studies, groups of 15 or 20 mice were given actinomycin D at different levels, either in the nonencapsulated or in the liposome-encapsulated forms. Toxicity of actinomycin D was tested by both intravenous and intraperitoneal injection. Experiments were carried out to test the therapeutic efficacy of the encapsulated actinomycin D against Ehrlich ascites (E. A.) tumor cells in vivo. In Experiment I, mice recieved 20 × 10^6 E.A. cells by intraperitoneal injection. After 5 days, separate groups were treated with one of the following: (1) 0.4 ml of 8 mM calcium chloride, (2) nonencapsulated actinomycin D (0.75 mg/kg), or (3) liposome-encapsulated actinomycin D (0.75 mg/kg). In Experiment II, two groups of 10 mice were similarly inoculated. Treatment of one group was begun after 3 days with 0.5 mg/kg of encapsulated actinomycin D, followed by injection on 4 consecutive days with 0.25 mg/kg. All injections were given intraperitoneally, in a volume of 0.4 ml in Experiment I, 0.2 ml in Experiment II.

Data set [2] has as its system Ehrlich ascites (E. A.) tumor cells. In words: Therapeutic efficacy against Ehrlich ascites tumor cells in vivo (survival time). The arrangement: species or system mice. The following applies: Experiment I: single i.p. treatment 0.75 mg/kg, 5 days after inoculation of 20 × 10^6 E.A. cells; control 7.4 ± 3.11 days. As to the method: Referring to FIG. 1, there is illustrated the therapeutic effect of liposome-encapsulated actinomycin D on the survival of mice bearing E.A. tumor following single treatments given at 5 days after inoculation of 20 × 10^6 E.A. cells. A control is represented by line 11 on the graph, liposome-encapsulated actinomycin D at 0.75 mg/kg represented by line 12 and nonencapsulated actinomycin D at 0.75 mg/kg represented by line 13.
Referring to FIG. 2, there is shown graphically the therapeutic effect of liposome-encapsulated actinomycin D on the survival of mice bearing E.A. tumor with multiple daily treatments starting at day 3 after inoculation with 20 × 10^6 E.A. cells. In FIG. 2, the control is represented by line 14, liposome-encapsulated actinomycin D, first dose 0.50 mg/kg followed by four consecutive injections of 0.25 mg/kg, is represented by line 15. As is readily apparent from the graph, the increase in survival time after mutliple injections of encapsulated actinomycin D was even more impressive: 7.3 ± 2.26 days for the control versus 17.6 ± 2.17 days for the encapsulated actinomycin D. All of the control animals died before the first death occurred in the treatment group. In a separate experiment, it was observed that injection of liposomes prepared with KCl instead of actinomycin D had no effect on survival time.

Another data set has as its system E.A. cells. In words: Light and electron microscopic examination of E.A. tumor cells after treatment. Format: in vivo, mouse. Particulars: 1 mg/kg (2 mg/kg in the first case), 1 hour to 5 days after treatment. How it is done:
Electron microscopic studies of tissue cells were also conducted. For the electron microscopic studies, a mouse was inoculated with E.A. cells in the manner described above. Five days after the inoculation, liposomes containing actinomycin D at a concentration of 2 mg/kg were injected intraperitoneally. At intervals of 1, 6, 12 and 24 hours after the liposome injection, 0.2 ml of ascites fluid was aspirated from the mouse abdominal cavity with a syringe. The fluid was centrifuged and the pellet of E.A. cells was fixed and processed for examination in an electron microscope. […] Light and electron microscopic examination of E.A. tumor cells was also carried out 1 hour to 5 days after treatment with liposome-encapsulated and nonencapsulated actinomycin D at a dose of 1 mg/kg. […] There was an increase in lipid droplets, lyosomes and autophagic vacuoles and the ribosomes were clumped into distinct clusters. Fewer dividing cells were seen, at least after 24 hours post-treatment.

Read-outs that look alike come from different tables or passages of the source. *1 amine or outer side, *2 acyl side, *3 side chain or, on linkers, in order; H or OH if unused. Where a SMILES comes first, the peptide text is derived from it. Bridges are numbered along the chain shown (N, C = ends). Roman numbers before positions name the chains, in order. [ ]: non-standard residue; d: D form. Actinocin(9to1) = Cc1c2oc3c(C)ccc(C(=O)[*:1])c3nc-2c(C(=O)[*:2])c(N)c1=O; NMeV = CN[C@H](C(=O)O)C(C)C; Sar = CNCC(=O)O

As for `Cc1c2oc3c(C)ccc(C(=O)N[C@@H]4C(=O)N[C@H](C(C)C)C(=O)N5CCC[C@H]5C(=O)N(C)CC(=O)N(C)[C@@H](C(C)C)C(=O)O[C@@H]4C)c3nc-2c(C(=O)N[C@@H]2C(=O)N[C@H](C(C)C)C(=O)N3CCC[C@H]3C(=O)N(C)CC(=O)N(C)[C@@H](C(C)C)C(=O)O[C@@H]2C)c(N)c1=O` [actinomycin D] (I: T[dV]P[Sar][NMeV] / II: T[dV]P[Sar][NMeV]; ester I:1-I:C, II:1-II:C; linker I:N-II:N via Actinocin(9to1)), in data set [1] (given intravenously), the LD50 turned out to be 0.43 ± 0.04 mg/kg. For the same compound, in data set [1] (intraperitoneal injection), the LD50 stood at 0.59 ± 0.17 mg/kg and the “survival of some of the decedents” value was at most 14 days. For the same compound, in data set [1] (intravenous, 0.3 mg/kg), the “average survival time of the decedents” value came out at 3.5 days and the “decedents out of 20 injected” value is reported as 8. The “time within which most of the deaths occurred” value in data set [1] (intravenous, doses of 0.5 mg/kg and above) was at most 24 h. The “survival time after treatment” value in data set [2] is reported as “slightly, but not significantly, less than the controls”. For the same compound, the “morphological damage of E.A. cells” value in the data set on E.A. cells is reported as “Significantly fewer E. A. cells were damaged”.
